Our source for the IC50, Activity and Ki values is ChEMBL document CHEMBL1667842, “Benzyl benzoates: New phlorizin analogs as mushroom tyrosinase inhibitors” (Bioorg Med Chem, 2011).

The source made the active and inactive calls. No cut-off for these calls is given here. Where only a bound is given, the exact number is not on record here.

Experiment [1] has as its target T1, Tyrosinase (Agaricus bisporus, UniProt O42713).
T1 sequence (O42713 whole entry): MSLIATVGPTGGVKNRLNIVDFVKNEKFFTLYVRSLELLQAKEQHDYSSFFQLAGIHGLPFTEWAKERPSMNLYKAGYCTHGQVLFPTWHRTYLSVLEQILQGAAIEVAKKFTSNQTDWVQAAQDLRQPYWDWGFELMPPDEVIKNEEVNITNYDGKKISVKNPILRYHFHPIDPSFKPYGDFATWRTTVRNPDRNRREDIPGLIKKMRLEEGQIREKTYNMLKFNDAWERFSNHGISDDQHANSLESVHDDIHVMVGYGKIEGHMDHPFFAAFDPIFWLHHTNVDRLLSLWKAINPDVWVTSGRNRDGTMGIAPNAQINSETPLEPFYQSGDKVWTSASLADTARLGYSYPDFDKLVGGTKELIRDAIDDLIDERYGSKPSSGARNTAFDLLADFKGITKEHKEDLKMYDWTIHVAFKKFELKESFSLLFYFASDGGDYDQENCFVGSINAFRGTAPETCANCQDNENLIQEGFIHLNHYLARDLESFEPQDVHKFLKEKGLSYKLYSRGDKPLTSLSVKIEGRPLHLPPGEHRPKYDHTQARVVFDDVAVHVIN
Description: Inhibition of mushroom tyrosinase preincubated for 20 mins

The target of experiment [2] is T2, Tyrosinase (Agaricus bisporus) (UniProt O42713).
T2 sequence (whole entry): T1 sequence (O42713 whole entry)
In words: (§1) Competitive inhibition of mushroom tyrosinase by Lineweaver-Burk plot analysis.

In experiment [3] the target is T1, Tyrosinase. Described as §1.

Take `O=C(OCc1ccc(O)cc1)c1cc(O)c(O)c(O)c1` [4-HYDROXYBENZYL GALLATE]: the half-maximal inhibitory concentration (IC50) against Tyrosinase [1] was 25.7 µM. For the compound `O=C(OCc1cccc(O)c1)c1cc(O)c(O)c(O)c1`, it took 11.5 µM to reach half-maximal inhibition against Tyrosinase [1] (IC50). The same measure, in the same setting: the figure for `O=C(OCc1ccccc1O)c1ccc(O)cc1O` is 66.2 µM; for `O=C(OCc1ccc(O)cc1)c1cc(O)ccc1O` [4-HYDROXYBENZYL 2,5-DIHYDROXYBENZOATE] it is 12.3 µM.

In turn, `O=C(OCc1ccccc1O)c1cc(O)ccc1O` came in with an IC50 on Tyrosinase [1] of over 100 µM. Same read-out and setting: the figure for `O=C(OCc1ccccc1O)c1cc(O)cc(O)c1` is 19.9 µM.

In the case of `O=C(OCc1cccc(O)c1)c1ccc(O)cc1O`, the IC50 at Tyrosinase [1] amounted to 6.23 µM. Moreover, in experiment [2], the outcome was Active. With `O=C(OCc1ccccc1O)c1c(O)cc(O)cc1O`, the IC50 on Tyrosinase [1] worked out at 19.9 µM. This lies in the double-digit micromolar range. Turning to `O=C(OCc1ccc(O)cc1)c1ccc(O)cc1O`, on Tyrosinase [1], the IC50 was 4.69 µM. For the same compound, the affinity on Tyrosinase [3] corresponds to a Ki of 1.11 µM. On Tyrosinase [1], `O=C(OCc1ccc(O)cc1)c1c(O)cc(O)cc1O` [4-HYDROXYBENZYL 2,4,6-DIHYDROXYBENZOATE] had an IC50 of 8 µM. In addition, in experiment [2], the outcome was Active.

With `O=C(OCc1ccccc1O)c1cc(O)c(O)c(O)c1`, on Tyrosinase [1], the IC50 is over 100 µM. The compound `O=C(OCc1ccc(O)cc1)c1cc(O)cc(O)c1` [4-HYDROXYBENZYL 3,5-DIHYDROXYBENZOATE] displayed an IC50 on Tyrosinase [1] of 5.84 µM. For the same compound, in experiment [2], the outcome was Active.

As for `O=C(OCc1cccc(O)c1)c1cc(O)ccc1O` [3-HYDROXYBENZYL 2,5-DIHYDROXYBENZOATE], 24.4 µM corresponded to half-maximal inhibition against Tyrosinase [1] (IC50). Consider `O=C(OCc1cccc(O)c1)c1cc(O)cc(O)c1`, for which the IC50 against Tyrosinase [1] was determined as 6.11 µM. Moreover, the result in experiment [2] was Active.

Usually IC50 stands for the concentration that inhibits the measured activity by half. A high value points to weaker potency. Usually Ki stands for a dissociation constant, usually derived from enzyme kinetics or from competition with a known ligand.
